# In patent publication US12582696B2, “Debaryomyces species as an indicator of non-healing ulcers in Crohn's disease” (Washington University, priority 2019, dated 2026):
# Key:
# [1] = system: Debaryomyces sp.; test: mini screen with known water-soluble antifungals (MIC, dose-response); format: cell-based
# [2] = system: mucosal wounds in the distal colon of mice; test: biopsy injury model in WT mice without VNAM or D. hansenii gavage; format: in vivo; conditions: amphotericin B in the absence of D. hansenii gavage and VNAM; day 12 post-injury
# Excerpt: C57BL6 WT were purchased from Jackson Laboratories (Bar Harbor, ME) or Taconic Biosciences and acclimatized in a specific pathogen-free facility for 1 week before conducting any experiment. Biopsy forceps and a miniaturized colonoscope system (Karl Storz) were used to create mucosal wounds in the distal colon of mice as described previously. Briefly, mice were anesthetized using ketamine/xylazine and stool pellets were removed from the colon by flushing with PBS. Next, 3 French biopsy forceps were inserted into the colon and 3-5 thickness areas of mucosa and submucosa were removed under the guidance of an endoscopy camera. Biopsy injured mice were euthanized, and wounds were collected on days 4, 6, 8, and 12 to evaluate healing. Biopsy injury was performed by investigators blinded to the treatments.
# (§1) For hematoxylin and eosin (H&E) staining, wounds were collected and embedded in optimum cutting temperature (OCT) formulation (Thermo Fisher Scientific), and 5 μm frozen sections were obtained using a cryostat. […] Images were analyzed using Olympus CellSens Standard imaging software to measure the wound bed length defined as the distance between the two farthest crypts in the center of the wound bed. 2-3 wounds per mouse were analyzed and wound bed lengths were averaged to obtain one value per mouse. […]
# [3] = system: D. hansenii; test: biopsy injury model in WT mice gavaged with D. hansenii CDA1 (human clinical isolate); format: in vivo; conditions: WT mice gavaged with D. hansenii CDA1 with or without amphotericin B; day 12 post-injury
# Experimental: For inoculation experiments, yeasts were expanded in Sabouraud dextrose agar (SDA) for 2-4 days at 30° C. prior to gavage. Mice were gavaged with pure culture of D. hansenii (obtained from the wounds of antibiotic-treated mice or inflamed tissues of Crohn's disease) or Saccharomyces cerevisiae (ATCC) at ˜10^6 CFU/mouse, unless otherwise stated, in 150 μl of PBS. Controls received PBS only. For all inoculation experiments, gavage occurred 2 days before injury, on the day of injury, and 2, 4, and 6 days post-injury unless otherwise stated.
# To ascertain whether human clinical isolates of D. hansenii were capable of inducing repair defects, the following experiments were conducted. WT mice were gavaged with D. hansenii CDA1 (Table 3) using methods similar to those described above. The CDA isolate was associated with impaired crypt regeneration in the biopsy injury model, and this effect was reversed by amphotericin B treatment (FIG. 11G, I).
# [4] = system: mucosal wounds in the distal colon of mice; test: colonic biopsy injury model, mucosal wound repair in VNAM-treated mice; format: in vivo; conditions: day 12 post-injury
# Excerpt: To test the role of microbes in mucosal wound repair, a biopsy injury model was used where the timing and site of injuries are known in each experiment. Wound repair in this model occurs in distinct phases. Barrier re-establishment begins immediately upon injury and lasts for 4 days, and is characterized by the formation of wound associated epithelial (WAE) cells that cover the denuded mucosa. Wound channel formation phase (day 4-day 8), involves extensive proliferation of epithelial cells in crypts adjacent to the wound, forming channels that emanate towards the center of the wound. These two phases culminate in the formation of new crypts that is complete within 12 days post-injury.
# C57BL6 WT were purchased from Jackson Laboratories (Bar Harbor, ME) or Taconic Biosciences and acclimatized in a specific pathogen-free facility for 1 week before conducting any experiment. […]
# as §1
# [5] = system: fungi; test: fungi in colonic wounds of biopsy-injured mice (ITS qPCR, anti-fungal antibody staining, ITS sequencing, SDA culture); format: in vivo; conditions: VNAM-treated mice; amphotericin B orally once daily from 3 days before injury to day 6 post-injury
# Experimental: Quantitative PCR was performed on the mice of Ex. 4 to identify fungal microbiota within the intestinal wounds. About three fecal pellets or 10-50 mg samples of intestinal tissue were resuspended in Tris buffer supplemented with 1000 U/ml of lyticase (Sigma), 1 mM EDTA, and 0.2% β-mercaptoethanol (Sigma). DNA was extracted using either the DNeasy PowerLyzer PowerSoil kit (Qiagen) or DNA mini stool extraction kit (Qiagen) according to manufacturer's instructions.
# Quantitative PCR was performed using SYBR Green (Roche) or SYBR Green Jumpstart Taq Ready mix (Sigma) on an Eppendorf Mastercycler (Eppendorf) using the following primers as described previously (23, 42, 52)—Saccharomyces cerevisiae: forward (5′-[…]-3′, SEQ ID NO:3), reverse (5′-[…]-3′, SEQ ID NO:4), Candida tropicalis: forward (5′-[…]-3′, SEQ ID NO:5), reverse (5′-[…]-3′, SEQ ID NO:6), Debaryomyces hansenii: forward (5′-[…]—3′, SEQ ID NO:7), reverse (5′-[…]-3′, SEQ ID NO:8) and ITS1-2: forward (5′-[…]-3′, SEQ ID NO:9), reverse (5′-[…]-3′, SEQ ID NO:10). The following conditions were used: 94° C. for 10 minutes, followed by 40 cycles of 94° C. for 30 seconds, 55° C. for 30 seconds, and 72° C. for 2 minutes, ending with 72° C. for 30 minutes. […]
# [6] = system: PGE2; test: wound PGE2 levels in VNAM administered, biopsy injured mice; format: in vivo; conditions: day 6 post-injury, NS-398 vs vehicle, p<0.01
# Experimental: Antibiotic-treated (VNAM) mice received the following cocktail for 4 weeks prior to biopsy injury until the day of sacrifice in drinking water: 0.5 g/L Vancomycin, 1 g/L Neomycin, 1 g/L Ampicillin, 1 g/L Metronidazole, and 1 g/L Kool-aid. Control mice received Kool-aid alone. Mice were treated with VNAM in the following figures: FIG. 8A-F, FIG. 9A-E, FIG. 12A-D, FIG. 13, FIG. 14, and FIG. 19A. […]
smiles,measurement,setting,value
CC[C@H](C)C[C@H](C)CCCCCCCCC(=O)N[C@H]1C[C@@H](O)[C@@H](NCCN)NC(=O)[C@@H]2[C@@H](O)CCN2C(=O)[C@H]([C@H](O)CCN)NC(=O)[C@H]([C@H](O)[C@@H](O)c2ccc(O)cc2)NC(=O)[C@@H]2C[C@@H](O)CN2C(=O)[C@H]([C@@H](C)O)NC1=O [caspofungin],MIC,[1]; Debaryomyces,0.62 µg/mL
same,effectiveness compared to azoles in the antifungal screen,"[1]; against Debaryomyces sp., water-soluble antifungals",most effective at lowest concentrations
C[C@@H]1[C@H](O)[C@@H](C)/C=C/C=C/C=C/C=C/C=C/C=C/C=C/[C@H](O[C@@H]2O[C@H](C)[C@@H](O)[C@H](N)[C@@H]2O)C[C@@H]2O[C@](O)(C[C@@H](O)C[C@@H](O)[C@H](O)CC[C@@H](O)C[C@@H](O)CC(=O)O[C@H]1C)C[C@H](O)[C@H]2C(=O)O [amphotericin B],repair of WT mice (wound bed length),[2],did not demonstrate any obvious defects in repair
same,impaired crypt regeneration caused by D. hansenii CDA1 (wound bed length),[3],reversed
same,crypt regeneration (wound bed length),"[4]; VNAM-treated mice, amphotericin B orally",reversed the crypt regeneration defects
same,fungal antigen detection in the wounds,[5],reduced fungal antigen detection
CS(=O)(=O)Nc1ccc([N+](=O)[O-])cc1OC1CCCCC1 [NS-398],wound PGE2 levels,[6],ablation of PGE2
same,"wound bed length, NS-398 vs vehicle","[4]; VNAM pre-treated mice, NS-398 2.5 mg/kg i.p. twice daily days 4-10",not significant
